Results from patent publication US7033997B2, “Use of natriuretic peptides as antibiotically active substances for the treatment of bacterial infections” (Pharis Biotec GmbH, priority 1999, dated 2006).

How the values were obtained:
Format in all cases: cell-based
N. cinerea = experiment: Radial diffusion growth inhibition test according to Lehrer et al.; details: for growth-inhibiting effect: Gram-negative bacteria
Text: (§1) The peptides to which this invention relates are members of the family of natriuretic peptides. […] The form of ANP which occurs in the kidneys, urodilatin, was first isolated in 1988 by Forssmann et al. (Schulz-Knappe et al., 1988). […] A useful test for recognizing antibiotic activity is the growth inhibition test of Lehrer et al. (Lehrer et al. J. Immun. Methods, Vol. 137, p. 167, 1991).
(§2) Radial diffusion growth inhibition test with Streptococcus carnosus and N. cinerea according to Lehrer et al. (Lehrer et al., J. Immun. Methods, Vol. 137, p. 167, 1991).
(§3) The purity and identity of the peptides is determined by mass spectrometry (quadrupole electrospray mass spectrometry, Sciex API 111, Perkin Elmer) and sequencing in a gas-phase sequencer (model 470, Applied Biosystems, Weiter-stadt) and checked by capillary zone electrophoresis. The biological activity is verified by the growth inhibition test.

Streptococcus carnosus = experiment: as above; details: for growth-inhibiting effect: Gram-positive bacteria
Text: as §1, §2, §3

B. subtilis = experiment: Growth inhibition test; details: Gram-positive bacteria
Protocol: as §1, §3

E. coli = experiment: Growth inhibition test; details: Gram-negative bacteria
Protocol: as §1, §3

M. luteus = experiment: Growth inhibition test; details: Gram-positive bacteria
Protocol: as §1, §3

P. fluorescens = experiment: Growth inhibition test; details: Gram-negative bacteria
Protocol: as §1, §3

S. cerevisiae = experiment: Growth inhibition test; details: yeast S. cerevisiae
Protocol: as §1, §3

[1] = after application of 1 μg, Streptococcus carnosus

**Q.** Which growth-inhibiting effect (N. cinerea) does the source give for CC[C@H](C)[C@@H]1NC(=O)[C@H](CCCNC(=N)N)NC(=O)[C@H](CC(=O)O)NC(=O)[C@H](CCSC)NC(=O)[C@H](CCCNC(=N)N)NC(=O)CNC(=O)CNC(=O)[C@H](Cc2ccccc2)NC(=O)[C@@H](NC(=O)[C@H](CO)NC(=O)[C@H](CO)NC(=O)[C@H](CCCNC(=N)N)NC(=O)[C@H](CCCNC(=N)N)NC(=O)[C@H](CC(C)C)NC(=O)[C@@H](N)CO)CSSC[C@@H](C(=O)N[C@@H](CC(N)=O)C(=O)N[C@@H](CO)C(=O)N[C@@H](Cc2ccccc2)C(=O)N[C@@H](CCCNC(=N)N)C(=O)N[C@@H](Cc2ccc(O)cc2)C(=O)O)NC(=O)CNC(=O)[C@H](CC(C)C)NC(=O)CNC(=O)[C@H](CO)NC(=O)[C@H](CCC(N)=O)NC(=O)[C@H](C)NC(=O)CNC1=O [ANP] here?
**A.** growth-inhibiting effect

**Q.** What about the inhibition halos (N. cinerea; after application of 1 μg) of the same molecule?
**A.** inhibition halos can be observed

**Q.** And the growth-inhibiting effect (Streptococcus carnosus; S. carnosus)?
**A.** growth-inhibiting effect

**Q.** What about the inhibition halos (Streptococcus carnosus; [1]) of the same molecule?
**A.** inhibition halos can be observed

**Q.** What about the growth-inhibiting effect (B. subtilis) of the same molecule?
**A.** growth-inhibiting effect

**Q.** What about the growth-inhibiting effect (E. coli) of the same molecule?
**A.** growth-inhibiting effect

**Q.** And the growth-inhibiting effect (M. luteus)?
**A.** growth-inhibiting effect

**Q.** What about the growth-inhibiting effect (P. fluorescens) of the same molecule?
**A.** growth-inhibiting effect

**Q.** What about the growth-inhibiting effect (S. cerevisiae) of the same molecule?
**A.** growth-inhibiting effect

**Q.** What does the source list for “Gly-Leu-Ser-Lys-Gly-Cys-Phe-Gly-Leu-Lys-Leu-Asp-Arg-Ile-Gly-Ser-Met-Ser-Gly-Leu-Gly-Cys (GLSKGCFGLKLDRIGSMSGLGC; listed as Homo sapiens) [CNP]”?
**A.** inhibition halos (N. cinerea; after application of 11 μg): inhibition halos can be observed; inhibition halos (Streptococcus carnosus; after application of 7 μg, S. carnosus): inhibition halos can be observed

**Q.** For “Thr-Ala-Pro-Arg-Ser-Leu-Arg-Arg-Ser-Ser-Cys-Phe-Gly-Gly-Arg-Met-Asp-Arg-Jle-Gly-Ala-Gln-Ser-Gly-Leu-Gly-Cys-Asn-Ser-Phe-Arg-Tyr [urodilatin]”, which growth-inhibiting effect (N. cinerea) is on record?
**A.** growth-inhibiting effect

**Q.** And the inhibition halos (N. cinerea; after application of 1 μg)?
**A.** inhibition halos can be observed

**Q.** And the growth-inhibiting effect (Streptococcus carnosus; S. carnosus)?
**A.** growth-inhibiting effect

**Q.** What about the inhibition halos (Streptococcus carnosus; [1]) of the same molecule?
**A.** inhibition halos can be observed

**Q.** And the growth-inhibiting effect (B. subtilis)?
**A.** growth-inhibiting effect

**Q.** What about the growth-inhibiting effect (E. coli) of the same molecule?
**A.** growth-inhibiting effect

**Q.** And the growth-inhibiting effect (M. luteus)?
**A.** growth-inhibiting effect

**Q.** What about the growth-inhibiting effect (P. fluorescens) of the same molecule?
**A.** growth-inhibiting effect

**Q.** And the growth-inhibiting effect (S. cerevisiae)?
**A.** growth-inhibiting effect
